Results taken from DBAASP.
Values after ≈ are worked out from the molar mass of the structure shown. Each block holds one compound with its values, some of them ahead of it.

Legend:
Test in all cases: ≥ marks a high value that may be exact or a test limit, other limits are often not marked, values filed in µg/mL are converted to µM
Klebsiella pneumoniae = test system: Klebsiella pneumoniae
[1] = test system: Staphylococcus epidermidis
Enterococcus sp. = test system: Enterococcus sp.
Escherichia coli ESBL = test system: Escherichia coli ESBL
Pseudomonas aeruginosa = test system: Pseudomonas aeruginosa
Acinetobacter baumannii = test system: Acinetobacter baumannii
Staphylococcus aureus = test system: Staphylococcus aureus
Escherichia coli C600 = test system: Escherichia coli C600
[2] = test system: Staphylococcus aureus 209P
[3] = test system: Bacillus subtilis VKM B-501
[4] = test system: Staphylococcus aureus ATCC 25923
[5] = test system: Escherichia coli ATCC 25922
[6] = test system: Listeria monocytogenes EGD
[7] = test system: Pseudomonas aeruginosa ATCC 27853
[8] = test system: Escherichia coli CIP 54.8T

MIC (Klebsiella pneumoniae): 4.93 µM (≈ 12.5 µg/mL) | MIC [1]: 9.87 µM (≈ 25 µg/mL) | MIC (Enterococcus sp.): 9.87 µM (≈ 25 µg/mL) | MIC (Escherichia coli ESBL): 2.47 µM (≈ 6.25 µg/mL) | MIC (Pseudomonas aeruginosa): 4.93 µM (≈ 12.5 µg/mL) | MIC (Acinetobacter baumannii): 2.47 µM (≈ 6.25 µg/mL) | MIC (Staphylococcus aureus): 9.87 µM (≈ 25 µg/mL)
SMILES: CC(C)C[C@H](NC(=O)CNC(=O)[C@H](CCCCN)NC(=O)[C@@H](NC(=O)[C@H](CCCCN)NC(=O)[C@H](CCCCN)NC(=O)[C@@H](NC(=O)[C@@H](NC(=O)[C@H](CCCCN)NC(=O)[C@@H](NC(=O)[C@H](CCCCN)NC(=O)CNC(=O)[C@H](CCCN=C(N)N)NC(=O)[C@H](Cc1ccc(O)cc1)NC(=O)[C@H](CC(C)C)NC(=O)[C@H](CCCCN)NC(=O)CNC(=O)[C@H](Cc1ccccc1)NC(=O)[C@@H](N)Cc1c[nH]c2ccccc12)[C@@H](C)O)C(C)C)C(C)C)C(C)C)C(=O)N[C@@H](CC(C)C)C(=O)N[C@@H](CCCCN)C(=O)NCC(=O)O [WFGKLYRGKTKVVKKVKGLLKG]

MIC (Escherichia coli C600): 1.5 µM (≈ 4.62 µg/mL) | MIC [2]: 3 µM (≈ 9.24 µg/mL) | MIC [3]: 0.7 µM (≈ 2.16 µg/mL)
SMILES: CSCC[C@H](NC(=O)[C@H](CCCCN)NC(=O)CN)C(=O)N[C@@H](CCCCN)C(=O)N[C@@H](CCC(=O)O)C(=O)N[C@@H](Cc1ccc(O)cc1)C(=O)N[C@@H](Cc1ccccc1)C(=O)N[C@@H](CCCCN)C(=O)N[C@@H](CCCCN)C(=O)N[C@@H](Cc1ccccc1)C(=O)NCC(=O)N[C@@H](C)C(=O)N[C@@H](CO)C(=O)N[C@@H](Cc1ccccc1)C(=O)N[C@@H](CCCCN)C(=O)N[C@@H](CCCN=C(N)N)C(=O)N[C@@H](CCCN=C(N)N)C(=O)N[C@@H](Cc1ccccc1)C(=O)N[C@@H](C)C(=O)N[C@@H](CC(N)=O)C(=O)N[C@@H](CC(C)C)C(=O)N[C@@H](CCCCN)C(=O)N[C@@H](CCCCN)C(=O)N[C@@H](CCCN=C(N)N)C(=O)N[C@@H](CC(C)C)C(N)=O [GKMKEYFKKFGASFKRRFANLKKRL]

MIC [4]: 64 µM (≈ 144 µg/mL) | MIC [5]: 32 µM (≈ 71.8 µg/mL) | MIC [6]: ≥ 32 µM | MIC [7]: 64 µM (≈ 144 µg/mL)
SMILES: CC[C@H](C)[C@H](NC(=O)[C@H](C)NC(=O)CNC(=O)[C@H](CCCCN)NC(=O)[C@@H](NC(=O)[C@H](CC(C)C)NC(=O)[C@H](C)NC(=O)[C@H](CC(C)C)NC(=O)[C@@H](NC(=O)[C@@H](NC(=O)[C@H](Cc1ccc(O)cc1)NC(=O)[C@@H](NC(=O)[C@H](Cc1ccccc1)NC(=O)[C@H](CCCCN)NC(=O)[C@H](CCCCN)NC(=O)[C@@H](N)CCCCN)[C@@H](C)CC)[C@@H](C)CC)C(C)C)[C@@H](C)CC)C(=O)N[C@H](C(=O)N[C@@H](CCCCN)C(=O)N[C@@H](CCCCN)C(=O)NCC(N)=O)[C@@H](C)CC [KKKFIYIVLALIKGAIIKKG]

MIC [8]: ≥ 150 µM
SMILES: CC[C@H](C)[C@H](NC(=O)[C@H](Cc1cnc[nH]1)NC(=O)[C@H](Cc1cnc[nH]1)NC(=O)[C@H](Cc1ccccc1)NC(=O)[C@@H](NC(=O)[C@H](CCCCN)NC(=O)[C@@H](NC(=O)[C@@H](N)Cc1ccccc1)[C@@H](C)CC)[C@@H](C)CC)C(=O)N[C@@H](Cc1ccccc1)C(=O)N[C@@H](CCCCN)C(=O)NCC(=O)N[C@@H](CC(N)=O)C(=O)N1CCC[C@H]1C(=O)N[C@@H](CCCCN)C(=O)N[C@@H](Cc1ccccc1)C(=O)N[C@@H](CO)C(=O)N[C@H](C(=O)N[C@H](C(=O)N[C@@H](CCCCN)C(=O)O)[C@@H](C)CC)[C@@H](C)CC [FIKIFHHIFKGNPKFSIIK]
